Measured values reported in ChEMBL document CHEMBL1127107, “The affinity of the excised binding domain of FK-506 for the immunophilin FKBP12” (Bioorg Med Chem Lett, 1993).

Molecular target: Peptidyl-prolyl cis-trans isomerase FKBP1A (Homo sapiens, UniProt P62942)
Assay: The compound was evaluated for its affinity to the binding domain of immunophilin FK506 binding protein 12

Peptidyl-prolyl cis-trans isomerase FKBP1A, sequence (P62942 whole entry, the tested form may be a part): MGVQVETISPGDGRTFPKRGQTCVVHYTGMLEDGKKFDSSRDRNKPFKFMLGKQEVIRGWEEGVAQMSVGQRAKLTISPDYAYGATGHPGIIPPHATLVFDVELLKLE

How did the Kd turn out when COC[C@H]1O[C@@](O)(C(=O)C(=O)N2CCCC[C@H]2C(=O)OC/C(C)=C/[C@@H]2CC[C@@H](O)[C@H](OC)C2)[C@H](C)C[C@@H]1OC was run?
Its Kd is 10 nM.
